Reference: ChEMBL document CHEMBL6121015, “Correction of aberrant splicing of ELP1 pre-mRNA by kinetin derivatives - A structure activity relationship study” (Eur J Med Chem, 2025)
Active and inactive are the calls of the source. No cut-off for these calls is given here.

How the values were obtained:
GM04663 [1] = assay: Corrector activity at aberrant splicing of ELP1 gene […] mutant (unknown origin) in human GM04663 cells assessed as increase in exon 20 inclusion at 10 uM by Capillary electrophoresis; assay type: cell-based
GM04663 [2] = assay: Corrector activity at aberrant splicing of ELP1 gene […] mutant (unknown origin) in human GM04663 cells assessed as increase in exon 20 inclusion at 50 uM by Capillary electrophoresis; assay type: cell-based
ARPE-19 = assay: Cytotoxicity against human ARPE-19 cell assessed as decrease in resazurin signal incubated with resazurin for 1 hrs by M2 reader analysis; assay type: toxicity, cell-based; parameters: scale not given: the % may be the effect or the level left; details: arpe-19, 1 h
BJ = assay: Cytotoxicity against human BJ cell assessed as decrease in resazurin signal incubated with resazurin for 3 hrs by M2 reader analysis; assay type: toxicity, cell-based; parameters: scale not given: the % may be the effect or the level left
HaCaT = assay: Cytotoxicity against human HaCaT cell assessed as decrease in resazurin signal incubated with resazurin for 3 hrs by M2 reader analysis; assay type: toxicity, cell-based; parameters: scale not given: the % may be the effect or the level left
[3] = Cytotoxicity against human GM04663 cell assessed as decrease in resazurin signal incubated with resazurin for 48 hrs by M2 reader analysis; assay type: functional; parameters: scale not given: the % may be the effect or the level left

In the case of `Nc1nc2c(NCc3ccco3)nc(Cl)nc2[nH]1`, the Activity (GM04663 [1]) is reported as “inactive”.

With `CSc1nc2c(NCc3ccco3)ncnc2[nH]1` the Activity (GM04663 [1]) was “Active”.

For `CN(C)CCNc1nc2c(NCc3ccco3)ncnc2[nH]1`, the Activity (GM04663 [1]) was “Active”.

With `c1coc(CNc2ncnc3[nH]cnc23)c1` the Activity (GM04663 [1]) was “Active”.

With `Clc1cc(NCc2ccco2)ncn1` the Activity (GM04663 [2]) was “Active”.

For `c1csc(CNc2[nH]cnc3ncnc2-3)c1`, the Activity (GM04663 [1]) was “inactive”.

For `Nc1nc2c(NCc3ccco3)ncnc2[nH]1`, the Activity (GM04663 [1]) was “Active”.

In the case of `Nc1c(Cl)ncnc1NCc1ccco1`, the Activity (GM04663 [2]) is reported as “Active”.

With `Cn1cnc2ncnc(NCc3ccco3)c21` the Activity (GM04663 [1]) was “Active”.

`Fc1nc(NCc2ccco2)c2nc[nH]c2n1` showed an Activity (ARPE-19) of under 20%, an Activity (BJ) of over 20% and an Activity (HaCaT) of over 20%. For the same compound, the Activity [3] was over 20% and the Activity (GM04663 [1]) was “Active”.

With `COc1nc2c(NCc3ccco3)ncnc2[nH]1` the Activity (GM04663 [1]) was “Active”.

With `Nc1nc(Cl)cc(NCc2ccco2)n1` the Activity (GM04663 [2]) was “Active”.

In the case of `Cn1cnc2nc(Cl)nc(NCc3ccco3)c21`, the Activity (GM04663 [1]) is reported as “Active”.

For `CN(C)CCOc1nc2c(NCc3ccco3)ncnc2[nH]1`, the Activity (GM04663 [1]) was “Active”.

In the case of `CCCOc1nc2c(NCc3ccco3)ncnc2[nH]1`, the Activity (GM04663 [1]) is reported as “Active”.

With `C=CCNc1nc2c(NCc3ccco3)ncnc2[nH]1` the Activity (GM04663 [1]) was “Active”.

With `c1ccc(Nc2nc3c(NCc4ccco4)ncnc3[nH]2)cc1` the Activity (ARPE-19) was under 20%, the Activity (BJ) was over 20% and the Activity (HaCaT) was over 20%. For the same compound, the Activity [3] was over 20% and the Activity (GM04663 [1]) was “Active”.

With `Clc1nc(NCc2ccco2)c2[nH]cnc2n1` the Activity (ARPE-19) was under 20%, the Activity (BJ) was over 20% and the Activity (HaCaT) was over 20%. For the same compound, the Activity [3] was over 20% and the Activity (GM04663 [1]) was “Active”.

For `O=c1[nH]c2ncnc(NCc3ccco3)c2[nH]1`, the Activity (GM04663 [1]) was “Active”.

In the case of `CN(Cc1ccco1)c1cc(Cl)nc(N)n1`, the Activity (GM04663 [2]) is reported as “Active”.

In the case of `c1coc(CNc2ncnc3[nH]c(NCCCN4CCOCC4)nc23)c1`, the Activity (GM04663 [1]) is reported as “Active”.

For `Clc1nc(NCc2ccco2)c2nc(Cl)[nH]c2n1`, the Activity (GM04663 [1]) was “Active”.

In the case of `NCCNc1nc2c(NCc3ccco3)ncnc2[nH]1`, the Activity (GM04663 [1]) is reported as “Active”.

In the case of `CCCn1cnc2ncnc(NCc3ccco3)c21`, the Activity (GM04663 [1]) is reported as “inactive”.

For `Ic1nc2c(NCc3ccco3)ncnc2[nH]1`, the Activity (GM04663 [1]) was “inactive”.

Work on `c1ccc(CNc2nc3c(NCc4ccco4)ncnc3[nH]2)cc1` yielded an Activity (ARPE-19) of under 20%, an Activity (BJ) of over 20% and an Activity (HaCaT) of over 20%. The Activity [3] was over 20% and the Activity (GM04663 [1]) was “Active”.
